{"source": "patent US9133230B2", "about": "“Hydrazone derivatives having potent antitumor activity toward multi-drug resistant tumor cells” (THE UNITED STATES OF AMERICA AS REPRESENTED BY THE …, priority 2011, dated 2015)", "type_in_all_cases": "cell-based", "key": {"[1]": {"tested_on": "ovarian cancer cell lines", "test": "NCI 60 human tumor cell line screen, ovarian", "details": "Homo sapiens, arithmetic mean of two to nine cancer cell lines, read-out: Inhibitory concentration GI50, ovarian", "excerpt": "(§1) Selected compounds were submitted for testing in the organ-specific panel of human tumor cell lines at the National Cancer Institute, Bethesda, Md. This screen utilized 60 human tumor cell lines, representing leukemia, melanoma, and cancers of the lung, colon, brain, ovary, kidney, prostate, and breast (Boyd, M. R., “Status of the NCl preclinical antitumor drug discovery screen”. In Principles and practice of oncology updates; De Vita, V. T., Jr. Hellman, S., Rosenberg, S. A., Eds.; Lippincott: Philadelphia, Pa., 1989; Vol. 3, pp 1-12).\n(§2) The MG MID value is the average of the GI50 values for all the cell lines tested for drug concentrations in the range of 10^−4-10^−8 M (See website domain: dtp.nci.nih.gov/dtp)."}, "[2]": {"tested_on": "CNS cancer cell lines", "test": "NCI 60 human tumor cell line screen, CNS", "details": "Homo sapiens, arithmetic mean of two to nine cancer cell lines, read-out: Inhibitory concentration GI50, CNS", "excerpt": "as §1, §2"}, "[3]": {"tested_on": "renal cancer cell lines", "test": "NCI 60 human tumor cell line screen, renal", "details": "Homo sapiens, arithmetic mean of two to nine cancer cell lines, read-out: Inhibitory concentration GI50, renal", "excerpt": "as §1, §2"}, "[4]": {"tested_on": "60 human tumor cell lines", "test": "NCI 60 human tumor cell line screen, all cell lines", "excerpt": "as §1, §2"}, "[5]": {"tested_on": "human colorectal carcinoma HT29", "test": "Western blot of signal transduction pathways in HT29 cells", "details": "HT29, IC50 dose", "procedure": "The newly synthesized hydrazones RPC038, RPC042, and RPC046 had shown anti-tumor activity against 60 human cancer cell lines panel of the National Cancer Institute and on multi-drug resistant cell lines. The present studies were conducted to evaluate their action on signal transduction pathways in human colorectal carcinoma HT29. All the three compounds were examined at their IC50 doses.\nHuman colorectal carcinoma HT29 cells were obtained from the National Cancer Institute, Bethesda, Md., USA, and maintained in 5% CO2 at 37° C. in minimum essential media (Life Technologies, Inc., Grand Island, N.Y., USA) supplemented with 1% penicillin, streptomycin (Invitrogen, Carlsbad, Calif., USA), and 10% fetal bovine serum for optimal growth. HT29 cells (1×10^6) were plated in […], and 24 h later, fresh media was added and treated with the RPC038, RPC042 and RPC046 for indicated time points (2, 4, 8, 16 and 24 h). The cells were then washed with cold phosphate buffered saline (PBS) and taken in 1 ml PBS on ice and centrifuged at 4° C. The pellet was resuspended in appropriate volumes of radio immunoprecipitation assay buffer with protease inhibitor, kept on ice for 45 min and subsequently centrifuged at 4° C. An aliquot of supernatant (protein extract) was used to estimate the protein concentration. An aliquot of protein extract (40 μg) was subjected to Western blot analysis on a 12% polyacrylamide gel and transferred to nitrocellulose membrane. Blots were blocked, incubated with primary anti-pMEK, pERK, pJNK, pcjun, ERK, JNK, Cjun, Caspase-8, Caspase-6, PARP cleavage, or GAPDH antibodies (Cell Signaling Technology, Danvers, Mass.) and then conjugated with a secondary anti-mouse or an anti-rabbit horseradish […] antibody, and detected by ChemiDoc™ XRS+ System with Image Lab™ Software."}, "[6]": {"tested_on": "human colorectal carcinoma HT29", "test": "Western blot of signal transduction pathways in HT29 cells", "details": "HT29, IC50 dose", "remark": "listed apart in the source"}, "[7]": {"tested_on": "human cervical adenocarcinoma HeLa", "test": "MTS cytotoxicity assay, HeLa", "details": "Homo sapiens, HeLa, 48 h incubation", "in_short": "(§3)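 Log-phase human tumour cells plated at about 5000 cells/mL, left 24 h, then exposed to compound dilutions in triplicate for 48 h at 37 °C, 5% CO2. Viability read as MTS/PMS tetrazolium reduction after 2 h, absorbance at 490 nm.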"}, "[8]": {"tested_on": "human breast carcinoma MCF-7", "test": "MTS cytotoxicity assay, MCF-7", "details": "Homo sapiens, MCF7, 48 h incubation", "in_short": "as §3"}, "[9]": {"tested_on": "human colon carcinoma HT-29", "test": "MTS cytotoxicity assay, HT-29", "details": "Homo sapiens, HT-29, 48 h incubation", "in_short": "as §3"}, "[10]": {"tested_on": "HL60", "test": "MTS cytotoxicity on MDR tumor cells, HL60", "details": "Homo sapiens, HL-60, Vincristine (VCR) sensitive, 72 hr incubation"}, "[11]": {"tested_on": "nonsmall cell lung cancer cell lines", "test": "NCI 60 human tumor cell line screen, NSCL", "details": "Homo sapiens, arithmetic mean of two to nine cancer cell lines, read-out: Inhibitory concentration GI50, NSCL", "excerpt": "as §1, §2"}, "[12]": {"tested_on": "melanoma cell lines", "test": "NCI 60 human tumor cell line screen, melanoma", "details": "Homo sapiens, arithmetic mean of two to nine cancer cell lines, read-out: Inhibitory concentration GI50, melanoma", "excerpt": "as §1, §2"}}, "data": [{"compound": "C(=NNc1ncnc2[nH]cnc12)c1ccccn1", "note": "[I-18, 6-(2-(Pyridin-2-ylmethylene)hydrazinyl)-9H-purine]", "values": [{"measurement": "GI50", "setting": "[1]", "result": 629, "unit": "nM"}, {"measurement": "GI50", "setting": "[2]", "result": 633, "unit": "nM"}, {"measurement": "GI50", "setting": "[3]", "result": 1480, "unit": "nM"}, {"measurement": "mean GI50 (MG-MID)", "setting": "[4]; Homo sapiens, average of the GI50 values for all the cell lines tested, drug concentrations 10^−4-10^−8 M, read-out: MG-MID (mean graph midpoint)", "result": 977, "unit": "nM"}, {"measurement": "cells found to be the most sensitive", "setting": "[4]; NCI screen, by cancer type", "result": "prostate, ovarian, CNS, and melanoma cancer cell lines"}, {"measurement": "phosphorylation of ERK (time)", "setting": "[5]; Western blot pERK", "result": 4, "unit": "h"}, {"measurement": "phosphorylation of JNK", "setting": "[5]; Western blot pJNK (results not shown)", "result": "without phosphorylation of JNK"}, {"measurement": "MEK activation (time)", "setting": "[5]; Western blot pMEK", "result": 2, "unit": "h"}, {"measurement": "activation of cjun (time)", "setting": "[5]; Western blot pcjun", "result": 6, "unit": "h"}, {"measurement": "Caspase activation", "setting": "[5]; initial studies", "result": "Caspase-3 activation through Caspase-6 and not through Caspase-8"}, {"measurement": "Activation of NFkB (p50)", "setting": "[6]", "result": "observed"}, {"measurement": "GI50", "setting": "[7]", "result": 1900, "unit": "nM"}, {"measurement": "GI50", "setting": "[8]", "result": 3200, "unit": "nM"}, {"measurement": "GI50", "setting": "[9]", "result": 3500, "unit": "nM"}, {"measurement": "GI50", "setting": "[10]", "result": 1200, "unit": "nM"}, {"measurement": "GI50", "setting": "[11]", "result": 1230, "unit": "nM"}, {"measurement": "GI50", "setting": "[12]", "result": 753, "unit": "nM"}]}]}
